Reference: ChEMBL document CHEMBL4346705, “(±)-trans-Dihydronarciclasine and (±)-trans-dihydrolycoricidine analogues modified in their ring A: Evaluation of their anticancer activity and a SAR study” (2019)

Assays:
Assay type in all cases: functional
CCRF-CEM = assay: Antiproliferative activity against human CCRF-CEM cells assessed as cell viability at 10^-5 M incubated for 48 hrs by sulforhodamine B assay relative to control; conditions: read-out: Activity
HL-60(TB) = assay: Antiproliferative activity against human HL-60(TB) cells assessed as cell viability at 10^-5 M incubated for 48 hrs by sulforhodamine B assay relative to control; conditions: HL-60, 48 h, read-out: Activity
RPMI-8226 = assay: Antiproliferative activity against human RPMI8226 cells assessed as cell viability at 10^-5 M incubated for 48 hrs by sulforhodamine B assay relative to control; conditions: RPMI-8226, 48 h, read-out: Activity
SR = assay: Antiproliferative activity against human SR cells assessed as cell viability at 10^-5 M incubated for 48 hrs by sulforhodamine B assay relative to control; conditions: read-out: Activity
A549 = assay: Antiproliferative activity against human A549 cells assessed as cell viability at 10^-5 M incubated for 48 hrs by sulforhodamine B assay relative to control; conditions: A549, 48 h, read-out: Activity
EKVX = assay: Antiproliferative activity against human EKVX cells assessed as cell viability at 10^-5 M incubated for 48 hrs by sulforhodamine B assay relative to control; conditions: read-out: Activity
HOP-62 = assay: Antiproliferative activity against human HOP62 cells assessed as cell viability at 10^-5 M incubated for 48 hrs by sulforhodamine B assay relative to control; conditions: HOP-62, 48 h, read-out: Activity
NCI-H226 = assay: Antiproliferative activity against human NCI-H226 cells assessed as cell viability at 10^-5 M incubated for 48 hrs by sulforhodamine B assay relative to control; conditions: NCI-H226, 48 h, read-out: Activity
NCI-H23 = assay: Antiproliferative activity against human NCI-H23 cells assessed as cell viability at 10^-5 M incubated for 48 hrs by sulforhodamine B assay relative to control; conditions: NCI-H23, 48 h, read-out: Activity
NCI-H460 = assay: Antiproliferative activity against human NCI-H460 cells assessed as cell viability at 10^-5 M incubated for 48 hrs by sulforhodamine B assay relative to control; conditions: NCI-H460, 48 h, read-out: Activity
NCI-H522 = assay: Antiproliferative activity against human NCI-H522 cells assessed as cell viability at 10^-5 M incubated for 48 hrs by sulforhodamine B assay relative to control; conditions: NCI-H522, 48 h, read-out: Activity
HCT-116 = assay: Antiproliferative activity against human HCT116 cells assessed as cell viability at 10^-5 M incubated for 48 hrs by sulforhodamine B assay relative to control; conditions: HCT-116, 48 h, read-out: Activity
HCT-15 = assay: Antiproliferative activity against human HCT15 cells assessed as cell viability at 10^-5 M incubated for 48 hrs by sulforhodamine B assay relative to control; conditions: HCT-15, 48 h, read-out: Activity
KM12 = assay: Antiproliferative activity against human KM12 cells assessed as cell viability at 10^-5 M incubated for 48 hrs by sulforhodamine B assay relative to control; conditions: KM12, 48 h, read-out: Activity
SF-268 = assay: Antiproliferative activity against human SF268 cells assessed as cell viability at 10^-5 M incubated for 48 hrs by sulforhodamine B assay relative to control; conditions: SF-268, 48 h, read-out: Activity
SNB-19 = assay: Antiproliferative activity against human SNB19 cells assessed as cell viability at 10^-5 M incubated for 48 hrs by sulforhodamine B assay relative to control; conditions: SNB-19, 48 h, read-out: Activity
U-251 = assay: Antiproliferative activity against human U251 cells assessed as cell viability at 10^-5 M incubated for 48 hrs by sulforhodamine B assay relative to control; conditions: U-251, 48 h, read-out: Activity
Malme-3M = assay: Antiproliferative activity against human MALME-3M cells assessed as cell viability at 10^-5 M incubated for 48 hrs by sulforhodamine B assay relative to control; conditions: read-out: Activity
SK-MEL-28 = assay: Antiproliferative activity against human SK-MEL-28 cells assessed as cell viability at 10^-5 M incubated for 48 hrs by sulforhodamine B assay relative to control; conditions: SK-MEL-28, 48 h, read-out: Activity
UACC-257 = assay: Antiproliferative activity against human UACC257 cells assessed as cell viability at 10^-5 M incubated for 48 hrs by sulforhodamine B assay relative to control; conditions: UACC-257, 48 h, read-out: Activity
UACC-62 = assay: Antiproliferative activity against human UACC62 cells assessed as cell viability at 10^-5 M incubated for 48 hrs by sulforhodamine B assay relative to control; conditions: UACC-62, 48 h, read-out: Activity
IGROV-1 = assay: Antiproliferative activity against human IGROV1 cells assessed as cell viability at 10^-5 M incubated for 48 hrs by sulforhodamine B assay relative to control; conditions: IGROV-1, 48 h, read-out: Activity
OVCAR-8 = assay: Antiproliferative activity against human OVCAR8 cells assessed as cell viability at 10^-5 M incubated for 48 hrs by sulforhodamine B assay relative to control; conditions: OVCAR-8, 48 h, read-out: Activity
786-0 = assay: Antiproliferative activity against human 786-0 cells assessed as cell viability at 10^-5 M incubated for 48 hrs by sulforhodamine B assay relative to control; conditions: 786-0, 48 h, read-out: Activity
DU-145 = assay: Antiproliferative activity against human DU145 cells assessed as cell viability at 10^-5 M incubated for 48 hrs by sulforhodamine B assay relative to control; conditions: DU-145, 48 h, read-out: Activity
MDA-MB-231 = assay: Antiproliferative activity against human MDA-MB-231 cells assessed as cell viability at 10^-5 M incubated for 48 hrs by sulforhodamine B assay relative to control; conditions: MDA-MB-231, 48 h, read-out: Activity
BT-549 = assay: Antiproliferative activity against human BT549 cells assessed as cell viability at 10^-5 M incubated for 48 hrs by sulforhodamine B assay relative to control; conditions: BT-549, 48 h, read-out: Activity
MDA-MB-468 = assay: Antiproliferative activity against human MDA-MB-468 cells assessed as cell viability at 10^-5 M incubated for 48 hrs by sulforhodamine B assay relative to control; conditions: MDA-MB-468, 48 h, read-out: Activity

## COc1c2c(cc3c1C(=O)NC1C3CC(O)C(O)C1O)OCCO2 (racemic)
CCRF-CEM
  viability at 10 µM: 105%
HL-60(TB)
  viability at 10 µM: 95.4%
RPMI-8226
  viability at 10 µM: 102%
SR
  viability at 10 µM: 92.1%
A549
  viability at 10 µM: 96.5%
EKVX
  viability at 10 µM: 98.2%
HOP-62
  viability at 10 µM: 99.9%
NCI-H226
  viability at 10 µM: 92.7%
NCI-H23
  viability at 10 µM: 104%
NCI-H460
  viability at 10 µM: 109%
NCI-H522
  viability at 10 µM: 93.5%
HCT-116
  viability at 10 µM: 102%
HCT-15
  viability at 10 µM: 102%
KM12
  viability at 10 µM: 99.1%
SF-268
  viability at 10 µM: 97.9%
SNB-19
  viability at 10 µM: 102%
U-251
  viability at 10 µM: 100%
Malme-3M
  viability at 10 µM: 106%
SK-MEL-28
  viability at 10 µM: 106%
UACC-257
  viability at 10 µM: 98.8%
UACC-62
  viability at 10 µM: 96.7%
IGROV-1
  viability at 10 µM: 109%
OVCAR-8
  viability at 10 µM: 100%
786-0
  viability at 10 µM: 97.4%
DU-145
  viability at 10 µM: 107%
MDA-MB-231
  viability at 10 µM: 109%
BT-549
  viability at 10 µM: 99.5%
MDA-MB-468
  viability at 10 µM: 93.1%

## COc1cc2c(c(OC)c1OC)C(=O)NC1C2CC(O)C(O)C1O (racemic)
CCRF-CEM
  viability at 10 µM: 104%
HL-60(TB)
  viability at 10 µM: 99.3%
RPMI-8226
  viability at 10 µM: 102%
SR
  viability at 10 µM: 95.6%
A549
  viability at 10 µM: 98.4%
EKVX
  viability at 10 µM: 103%
HOP-62
  viability at 10 µM: 102%
NCI-H226
  viability at 10 µM: 102%
NCI-H23
  viability at 10 µM: 106%
NCI-H460
  viability at 10 µM: 110%
NCI-H522
  viability at 10 µM: 97.7%
HCT-116
  viability at 10 µM: 98.9%
HCT-15
  viability at 10 µM: 104%
KM12
  viability at 10 µM: 108%
SF-268
  viability at 10 µM: 103%
SNB-19
  viability at 10 µM: 99%
U-251
  viability at 10 µM: 98.9%
Malme-3M
  viability at 10 µM: 108%
SK-MEL-28
  viability at 10 µM: 111%
UACC-257
  viability at 10 µM: 100%
UACC-62
  viability at 10 µM: 94.1%
IGROV-1
  viability at 10 µM: 111%
OVCAR-8
  viability at 10 µM: 97.3%
786-0
  viability at 10 µM: 94.9%
DU-145
  viability at 10 µM: 110%
MDA-MB-231
  viability at 10 µM: 106%
BT-549
  viability at 10 µM: 110%
MDA-MB-468
  viability at 10 µM: 102%

## CCOc1c(OC)cc2c(c1OCC)C(=O)NC1C2CC(O)C(O)C1O (racemic)
CCRF-CEM
  viability at 10 µM: 102%
HL-60(TB)
  viability at 10 µM: 86.6%
RPMI-8226
  viability at 10 µM: 106%
SR
  viability at 10 µM: 90.3%
A549
  viability at 10 µM: 94.2%
EKVX
  viability at 10 µM: 97.5%
HOP-62
  viability at 10 µM: 106%
NCI-H226
  viability at 10 µM: 97.4%
NCI-H23
  viability at 10 µM: 99.9%
NCI-H460
  viability at 10 µM: 107%
NCI-H522
  viability at 10 µM: 88.9%
HCT-116
  viability at 10 µM: 100%
HCT-15
  viability at 10 µM: 102%
KM12
  viability at 10 µM: 102%
SF-268
  viability at 10 µM: 91.3%
SNB-19
  viability at 10 µM: 103%
U-251
  viability at 10 µM: 100%
Malme-3M
  viability at 10 µM: 103%
SK-MEL-28
  viability at 10 µM: 108%
UACC-257
  viability at 10 µM: 103%
UACC-62
  viability at 10 µM: 95.7%
IGROV-1
  viability at 10 µM: 103%
OVCAR-8
  viability at 10 µM: 97.1%
786-0
  viability at 10 µM: 103%
DU-145
  viability at 10 µM: 110%
MDA-MB-231
  viability at 10 µM: 107%
BT-549
  viability at 10 µM: 103%
MDA-MB-468
  viability at 10 µM: 98.1%

## CCOc1cc2c(c(O)c1OCC)C(=O)NC1C2CC(O)C(O)C1O (racemic)
CCRF-CEM
  viability at 10 µM: 103%
HL-60(TB)
  viability at 10 µM: 102%
RPMI-8226
  viability at 10 µM: 102%
SR
  viability at 10 µM: 91.7%
A549
  viability at 10 µM: 92.8%
EKVX
  viability at 10 µM: 99.7%
HOP-62
  viability at 10 µM: 101%
NCI-H226
  viability at 10 µM: 105%
NCI-H23
  viability at 10 µM: 102%
NCI-H460
  viability at 10 µM: 113%
NCI-H522
  viability at 10 µM: 92.6%
HCT-116
  viability at 10 µM: 104%
HCT-15
  viability at 10 µM: 99%
KM12
  viability at 10 µM: 106%
SF-268
  viability at 10 µM: 96.4%
SNB-19
  viability at 10 µM: 96%
U-251
  viability at 10 µM: 98.4%
Malme-3M
  viability at 10 µM: 102%
SK-MEL-28
  viability at 10 µM: 105%
UACC-257
  viability at 10 µM: 99.8%
UACC-62
  viability at 10 µM: 93%
IGROV-1
  viability at 10 µM: 109%
OVCAR-8
  viability at 10 µM: 97%
786-0
  viability at 10 µM: 94.1%
DU-145
  viability at 10 µM: 105%
MDA-MB-231
  viability at 10 µM: 103%
BT-549
  viability at 10 µM: 100%
MDA-MB-468
  viability at 10 µM: 94.8%

## CCOc1cc2c(c(OC)c1OCC)C(=O)NC1C2CC(O)C(O)C1O (racemic)
CCRF-CEM
  viability at 10 µM: 96.9%
HL-60(TB)
  viability at 10 µM: 86.8%
RPMI-8226
  viability at 10 µM: 101%
SR
  viability at 10 µM: 95.8%
A549
  viability at 10 µM: 84.3%
EKVX
  viability at 10 µM: 99.1%
HOP-62
  viability at 10 µM: 104%
NCI-H226
  viability at 10 µM: 99.1%
NCI-H23
  viability at 10 µM: 95.8%
NCI-H460
  viability at 10 µM: 102%
NCI-H522
  viability at 10 µM: 93.3%
HCT-116
  viability at 10 µM: 95.6%
HCT-15
  viability at 10 µM: 99.5%
KM12
  viability at 10 µM: 103%
SF-268
  viability at 10 µM: 95.4%
SNB-19
  viability at 10 µM: 97.7%
U-251
  viability at 10 µM: 95.4%
Malme-3M
  viability at 10 µM: 111%
SK-MEL-28
  viability at 10 µM: 105%
UACC-257
  viability at 10 µM: 98.2%
UACC-62
  viability at 10 µM: 97.3%
IGROV-1
  viability at 10 µM: 112%
OVCAR-8
  viability at 10 µM: 99.8%
786-0
  viability at 10 µM: 96.1%
DU-145
  viability at 10 µM: 106%
MDA-MB-231
  viability at 10 µM: 107%
BT-549
  viability at 10 µM: 101%
MDA-MB-468
  viability at 10 µM: 96.2%
